Our source for the MIC and CC50 values is ChEMBL document CHEMBL4513161, “CO-ADD screening of MMV (CH) - Pandemic Response Box” (2021).

In brackets after ≈: the same amount, converted by molar mass.

Assay [1] relates to Pseudomonas aeruginosa. The experiment in a line: Antibacterial activity against Pseudomonas aeruginosa PAO397 [PAO1 d(mexAB-oprM) d(mexCD-oprJ) d(mexEF-oprN) d(mexJKL) d(mexXY) d(opmH)] (CO-ADD:GN_211); MIC in CAMBH media using NBS plates, by OD(600). It counts as functional. Particulars: ASSAY_TEST Inhibition of Bacterial Growth, detection method Absorption (OD600), MEDIA CAMHB, plate type 384well, CORNING #3640, time 18 hr.

A further assay relates to Escherichia coli. The experiment in a line: microbe, parasite or virus in culture. Particulars: ATCC 25922, 18 h, ASSAY_TEST Inhibition of Bacterial Growth, detection method Absorption (OD600), MEDIA CAMHB, plate type 384well, NBS, CORNING #3640.
The subject of another assay is Candida albicans. Kind of assay: microbe, parasite or virus in culture. The conditions noted are these: ATCC 90028, ASSAY_TEST Inhibition of Fungal Growth, detection method Absorption (OD530), plate type 384well, NBS, CORNING #3640.
For another assay, the system named is Klebsiella pneumoniae. The experiment in a line: microbe, parasite or virus in culture. The conditions noted are these: ATCC 700603, 18 h, ASSAY_TEST Inhibition of Bacterial Growth, detection method Absorption (OD600), MEDIA CAMHB, plate type 384well, NBS, CORNING #3640.
For the next assay, the system named is Staphylococcus aureus. Kind of assay: microbe, parasite or virus in culture. The conditions noted are these: ATCC 43300, 18 h, ASSAY_TEST Inhibition of Bacterial Growth, detection method Absorption (OD600), MEDIA CAMHB, plate type 384well, NBS, CORNING #3640.
A further assay concerns HEK293. The experiment in a line: cells. It counts as functional, Homo sapiens, ATCC CRL1573. Particulars: Homo sapiens, ATCC CRL1573, HEK293; ASSAY_TEST Inhibition of Cell Viability; detection method Resazurin; Fluorescence (ex560/em590); MEDIA DMEM with 10% FBS; plate type 384well; TC; CORNING #3712; time 18 hr; read-out: CC50. Background: Alamar Blue is a resazurin reagent that responds to reducing activity.

The test system of another assay is Acinetobacter baumannii. The experiment in a line: microbe, parasite or virus in culture. The conditions noted are these: ATCC 19606, 18 h, ASSAY_TEST Inhibition of Bacterial Growth, detection method Absorption (OD600), MEDIA CAMHB, plate type 384well, NBS, CORNING #3640.
For assay [2], the system named is Pseudomonas aeruginosa. Kind of assay: microbe, parasite or virus in culture. The conditions noted are these: ATCC 27853, 18 h, ASSAY_TEST Inhibition of Bacterial Growth, detection method Absorption (OD600), MEDIA CAMHB, plate type 384well, NBS, CORNING #3640.
Description: Antibacterial activity against Pseudomonas aeruginosa ATCC 27853 (CO-ADD:GN_042); MIC in CAMBH media using NBS plates, by OD(600)

Description for Acinetobacter baumannii: Antibacterial activity against Acinetobacter baumannii ATCC 19606 (CO-ADD:GN_034); MIC in CAMBH media using NBS plates, by OD600
Description for Candida albicans: Antifungal activity against Candida albicans ATCC 90028 (CO-ADD:FG_001); MIC in YNB media using NBS plates, by OD630
Description for Cryptococcus neoformans: Antifungal activity against Cryptococcus neoformans H99 ATCC 208821 (CO-ADD:FG_002); MIC in YNB media using NBS plates, by Resazurin OD(600-570)
Description for Escherichia coli: Antibacterial activity against Escherichia coli ATCC 25922 (CO-ADD:GN_001); MIC in CAMBH media using NBS plates, by OD(600)
Description for Klebsiella pneumoniae: Antibacterial activity against Klebsiella pneumoniae MDR ATCC 70063 (CO-ADD:GN_003); MIC in CAMBH media using NBS plates, by OD(600)
Description for Staphylococcus aureus: Antibacterial activity against Staphylococcus aureus MRSA ATCC 43300 (CO-ADD:GP_020); MIC in CAMBH media, using NBS plates, by OD(600)

One may read the CC50 as the concentration that lowers cell viability or growth by half. Take `COc1ccc(NC(=O)c2cc3ccccn3n2)cc1`: the MIC against Pseudomonas aeruginosa [1], against Escherichia coli, against Cryptococcus neoformans, with Candida albicans, against Klebsiella pneumoniae and in the assay on Staphylococcus aureus was greater than 20 µM each time. Further, the MIC against Acinetobacter baumannii and against Pseudomonas aeruginosa [2] was greater than 20 µM throughout. Besides, the CC50 in the assay with HEK293 was greater than 20 µM.

Turning to `COc1ccc2nc(-c3ccccc3)cc(O)c2c1`, the MIC in the assay on Pseudomonas aeruginosa [1], against Escherichia coli, in the assay on Cryptococcus neoformans, in the assay with Candida albicans, against Klebsiella pneumoniae and with Staphylococcus aureus was greater than 20 µM throughout. The MIC with Acinetobacter baumannii and against Pseudomonas aeruginosa [2] was greater than 20 µM each time. In addition, the CC50 in the assay on HEK293 came to 2.85 µM.

For `CC(C)n1cnc2c(NCc3ccccc3)nc(NCc3ccccc3)nc21`, the MIC against Pseudomonas aeruginosa [1], in the assay with Escherichia coli, in the assay with Cryptococcus neoformans, with Candida albicans, in the assay on Klebsiella pneumoniae and against Staphylococcus aureus was greater than 20 µM throughout. Besides, the MIC in the assay on Acinetobacter baumannii and in the assay on Pseudomonas aeruginosa [2] was greater than 20 µM in each case. The CC50 in the assay on HEK293 is greater than 20 µM.

As to `O=C(Nc1ccc(F)cc1)c1nn(-c2ccccc2)c(=O)cc1Cl`, the MIC in the assay with Pseudomonas aeruginosa [1], against Escherichia coli, with Cryptococcus neoformans, with Candida albicans, against Klebsiella pneumoniae and against Staphylococcus aureus was greater than 20 µM throughout. The MIC against Acinetobacter baumannii and in the assay with Pseudomonas aeruginosa [2] was greater than 20 µM in each case. Further, the CC50 in the assay with HEK293 was determined as 8.2 µM.

In the case of `O=C(Cc1ccccc1F)Nc1nc2ccccc2[nH]1`, the MIC in the assay with Pseudomonas aeruginosa [1], against Escherichia coli, with Cryptococcus neoformans, in the assay on Candida albicans, in the assay with Klebsiella pneumoniae and in the assay with Staphylococcus aureus was greater than 20 µM in each case. The MIC in the assay on Acinetobacter baumannii and against Pseudomonas aeruginosa [2] was greater than 20 µM in each case. Also, the CC50 in the assay with HEK293 is greater than 20 µM.

On to `CC(=O)N[C@H](C)C(=O)N[C@H](Cc1ccccc1)C(=O)O`, for which the MIC in the assay with Pseudomonas aeruginosa [1], in the assay with Escherichia coli, in the assay with Cryptococcus neoformans, against Candida albicans, with Klebsiella pneumoniae and in the assay with Staphylococcus aureus was greater than 20 µM in each case. The MIC in the assay with Acinetobacter baumannii and against Pseudomonas aeruginosa [2] was greater than 20 µM in each case. The CC50 in the assay on HEK293 is greater than 20 µM.

Turning to `COc1ccc(SC(=O)N[C@H](CCC(=O)O)C(=O)O)cc1`, the MIC against Pseudomonas aeruginosa [1], in the assay with Escherichia coli, against Cryptococcus neoformans, against Candida albicans, against Klebsiella pneumoniae and in the assay with Staphylococcus aureus was greater than 20 µM in each case. Also, the MIC against Acinetobacter baumannii and in the assay on Pseudomonas aeruginosa [2] was greater than 20 µM in each case. For the same molecule, the 50% cytotoxic concentration (CC50) with HEK293 was greater than 20 µM.

For the molecule `Fc1ccc2c(/C=C/c3nnn[nH]3)c[nH]c2c1`, the MIC in the assay on Pseudomonas aeruginosa [1], in the assay with Escherichia coli, against Cryptococcus neoformans, in the assay with Candida albicans, against Klebsiella pneumoniae and against Staphylococcus aureus was greater than 20 µM throughout. In addition, the MIC in the assay with Acinetobacter baumannii and against Pseudomonas aeruginosa [2] was greater than 20 µM in each case. Also, the cytotoxic concentration (CC50) in the assay on HEK293 is greater than 20 µM.

On to `O=C(Nc1nnc(-c2ccc(Cl)cc2)o1)c1ccc(F)cc1`, for which the MIC with Pseudomonas aeruginosa [1], in the assay with Escherichia coli, in the assay on Cryptococcus neoformans, in the assay on Candida albicans, in the assay with Klebsiella pneumoniae and in the assay with Staphylococcus aureus was greater than 20 µM throughout. Further, the MIC against Acinetobacter baumannii and in the assay with Pseudomonas aeruginosa [2] was greater than 20 µM in each case. Further, the CC50 in the assay with HEK293 was greater than 20 µM.

On to `Cc1ccc(NC(=O)c2cc(Cl)ccc2O)cc1`, for which the MIC in the assay with Pseudomonas aeruginosa [1], against Escherichia coli, against Cryptococcus neoformans, against Candida albicans, against Klebsiella pneumoniae and with Staphylococcus aureus was greater than 20 µM each time. Further, the MIC in the assay with Acinetobacter baumannii and against Pseudomonas aeruginosa [2] was greater than 20 µM throughout. Besides, the CC50 in the assay with HEK293 was determined as 3.91 µM.

Take `O=C(Nc1ccc(-c2ccccc2)cc1)C1=C(O)C(Cc2ccccc2)OC1=O` (centres undefined): the MIC in the assay on Pseudomonas aeruginosa [1], with Escherichia coli, in the assay on Cryptococcus neoformans, in the assay with Candida albicans, against Klebsiella pneumoniae and in the assay on Staphylococcus aureus was greater than 20 µM in each case. Further, the MIC against Acinetobacter baumannii and in the assay with Pseudomonas aeruginosa [2] was greater than 20 µM in each case. Besides, the cytotoxic concentration (CC50) in the assay with HEK293 was greater than 20 µM.

As to `O=C(Nc1ncc(Cc2cccc3ccccc23)s1)C1CCCCC1`, the MIC against Pseudomonas aeruginosa [1], with Escherichia coli, with Cryptococcus neoformans, in the assay on Candida albicans, in the assay on Klebsiella pneumoniae and against Staphylococcus aureus was greater than 20 µM throughout. Moreover, the MIC against Acinetobacter baumannii and with Pseudomonas aeruginosa [2] was greater than 20 µM each time. For the same molecule, in the assay on HEK293, the CC50 was greater than 20 µM.

Regarding `CC(Cc1ccccc1)C(=O)Nc1ccc(Cl)cc1C(=O)O` (centres undefined), the MIC against Pseudomonas aeruginosa [1], against Escherichia coli, in the assay with Cryptococcus neoformans, against Candida albicans, against Klebsiella pneumoniae and against Staphylococcus aureus was greater than 20 µM each time. Besides, the MIC in the assay with Acinetobacter baumannii and against Pseudomonas aeruginosa [2] was greater than 20 µM throughout. In addition, in the assay on HEK293, the half-maximal cytotoxic concentration (CC50) is greater than 20 µM.

For `O=C(O)C(Cc1c[nH]c2ccccc12)N1C(=O)c2ccccc2C1=O` (centres undefined), the MIC with Pseudomonas aeruginosa [1], with Escherichia coli, in the assay on Cryptococcus neoformans, with Candida albicans, in the assay on Klebsiella pneumoniae and in the assay with Staphylococcus aureus was greater than 20 µM throughout. In addition, the MIC with Acinetobacter baumannii and with Pseudomonas aeruginosa [2] was greater than 20 µM each time. For the same molecule, the CC50 in the assay on HEK293 is greater than 20 µM.

On to `Cc1cccc(C)c1C(=O)Nc1nc(-c2ccccn2)cc2ccccc12`, for which the MIC against Pseudomonas aeruginosa [1], with Escherichia coli, in the assay with Cryptococcus neoformans, with Candida albicans, against Klebsiella pneumoniae and in the assay with Staphylococcus aureus was greater than 20 µM in each case. The MIC with Acinetobacter baumannii and in the assay on Pseudomonas aeruginosa [2] was greater than 20 µM each time. For the same molecule, the CC50 with HEK293 stood at 7.29 µM.

`O=C1NC(=O)C(Br)=C1Br`: the MIC against Pseudomonas aeruginosa [1] was greater than 20 µM; in the assay on Escherichia coli it was greater than 20 µM; with Cryptococcus neoformans, 10 µM (≈ 2.55 µg/mL); in the assay with Candida albicans, 20 µM (≈ 5.1 µg/mL); in the assay with Klebsiella pneumoniae, greater than 20 µM; against Staphylococcus aureus, greater than 20 µM. In addition, the MIC with Acinetobacter baumannii and against Pseudomonas aeruginosa [2] was greater than 20 µM throughout. Moreover, the CC50 in the assay on HEK293 turned out to be 3.28 µM.

Turning to `CCc1ccc(C2CC(C(F)(F)F)n3ncc(C(=O)NCc4ccc(OC)cc4)c3N2)cc1` (centres undefined), the MIC against Pseudomonas aeruginosa [1], against Escherichia coli, in the assay with Cryptococcus neoformans, against Candida albicans, with Klebsiella pneumoniae and with Staphylococcus aureus was greater than 20 µM throughout. For the same molecule, the MIC against Acinetobacter baumannii and in the assay with Pseudomonas aeruginosa [2] was greater than 20 µM each time. Besides, the 50% cytotoxic concentration (CC50) with HEK293 was greater than 20 µM.

Turning to `Cc1nc2ccc(Oc3ccccc3)cc2c2c1CCN2CCc1ccccc1`, the MIC against Pseudomonas aeruginosa [1] is 20 µM (≈ 7.61 µg/mL); in the assay with Escherichia coli it was greater than 20 µM; against Cryptococcus neoformans, greater than 20 µM; in the assay with Candida albicans, greater than 20 µM; in the assay with Klebsiella pneumoniae, greater than 20 µM; in the assay on Staphylococcus aureus it was greater than 20 µM. Moreover, the MIC against Acinetobacter baumannii and against Pseudomonas aeruginosa [2] was greater than 20 µM in each case. For the same molecule, the cytotoxic concentration (CC50) with HEK293 amounted to 14.4 µM.

Regarding `N=C(N)NCCCCC(=O)Nc1cc(C(F)(F)F)cc(NC(=O)c2cc(C(=O)Nc3cc(C(F)(F)F)cc(NC(=O)CCCCNC(=N)N)c3O[C@@H]3CCNC3)ncn2)c1O[C@@H]1CCNC1`, the MIC in the assay with Pseudomonas aeruginosa [1] was 5 µM (≈ 4.68 µg/mL); in the assay on Escherichia coli it was 1.25 µM (≈ 1.17 µg/mL); with Cryptococcus neoformans, 0.312 µM (≈ 0.293 µg/mL); against Candida albicans it was greater than 20 µM; with Klebsiella pneumoniae it was 2.5 µM (≈ 2.34 µg/mL); in the assay on Staphylococcus aureus it was no more than 0.156 µM. For the same molecule, the MIC against Acinetobacter baumannii came to 5 µM (≈ 4.68 µg/mL); in the assay with Pseudomonas aeruginosa [2], 10 µM (≈ 9.37 µg/mL). Further, the 50% cytotoxic concentration (CC50) in the assay on HEK293 is greater than 20 µM.

For `O=S(=O)(Nc1ccccc1)c1ccc(NC(=S)Nc2ccccc2)cc1`, the MIC in the assay on Pseudomonas aeruginosa [1], with Escherichia coli, in the assay on Cryptococcus neoformans, with Candida albicans, with Klebsiella pneumoniae and with Staphylococcus aureus was greater than 20 µM throughout. In addition, the MIC in the assay on Acinetobacter baumannii and in the assay on Pseudomonas aeruginosa [2] was greater than 20 µM each time. Besides, the CC50 in the assay on HEK293 was greater than 20 µM.

On to `O=C(c1ccccc1)N1CCN(c2ccccc2NC(=O)C(Cl)(Cl)Cl)CC1`, for which the MIC with Pseudomonas aeruginosa [1], against Escherichia coli, in the assay on Cryptococcus neoformans, against Candida albicans, in the assay with Klebsiella pneumoniae and in the assay on Staphylococcus aureus was greater than 20 µM in each case. In addition, the MIC in the assay on Acinetobacter baumannii and against Pseudomonas aeruginosa [2] was greater than 20 µM throughout. The CC50 in the assay on HEK293 is greater than 20 µM.
